Here are results for twelve compounds from patent US20240383856A1 (Zedira GmbH, priority 2021, published 2024).

Data set [1] addresses T1, recombinant human transglutaminase 2 (Homo sapiens, UniProt P21980).
T1 construct: purchased Zedira T022
T1 sequence (P21980 1-687): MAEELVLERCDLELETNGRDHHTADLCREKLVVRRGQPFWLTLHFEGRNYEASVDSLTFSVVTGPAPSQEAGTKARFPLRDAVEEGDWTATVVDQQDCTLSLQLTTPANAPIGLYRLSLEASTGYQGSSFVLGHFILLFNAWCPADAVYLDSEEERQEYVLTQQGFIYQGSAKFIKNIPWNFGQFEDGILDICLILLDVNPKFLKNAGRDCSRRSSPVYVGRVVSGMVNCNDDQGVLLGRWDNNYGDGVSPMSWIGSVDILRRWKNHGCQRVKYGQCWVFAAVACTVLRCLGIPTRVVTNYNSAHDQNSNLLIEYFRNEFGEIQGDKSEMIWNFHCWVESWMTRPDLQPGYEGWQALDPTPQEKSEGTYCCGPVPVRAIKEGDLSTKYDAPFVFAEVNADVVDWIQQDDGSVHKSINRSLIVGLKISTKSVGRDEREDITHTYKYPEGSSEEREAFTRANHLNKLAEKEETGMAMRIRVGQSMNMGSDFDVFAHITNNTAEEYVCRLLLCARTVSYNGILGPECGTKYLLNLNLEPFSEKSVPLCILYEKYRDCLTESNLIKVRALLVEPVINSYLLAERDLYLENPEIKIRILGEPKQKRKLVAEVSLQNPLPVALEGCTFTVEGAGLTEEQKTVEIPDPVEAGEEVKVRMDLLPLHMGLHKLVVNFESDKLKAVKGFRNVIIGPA
The data set is described as follows: Transglutaminase assay (DCC-assay): incorporation of dansylcadaverine into dimethylcasein. It counts as biochemical. Conditions: recombinant human TG2 10 nM; dansylcadaverine incorporation into dimethylcasein; read-out: IC50 TG2. As for the experimental part: To illustrate the advantage of branched alkyl moieties over aromatic moieties, we refer to reference compounds Ref. 2 (ZED1227, U.S. Pat. No. 9,434,763 B2) and Ref. 3 (A8, ZED1047). Inhibition data were determined using the classical fluorescent transamidation assay (dansylcadaverine incorporation into methylated casein, DCC-assay) as described [Buchold, C.; Hils, M.; Gerlach, U.; Weber, J.; Pelzer, C.; Heil, A.; Aeschlimann, D.; Pasternack, R. Features of ZED1227: The First-In-Class Tissue Transglutaminase Inhibitor Undergoing Clinical Evaluation for the Treatment of Celiac Disease. Cells 2022, 11, 1667. https://doi.org/10.3390/cells11101667]. Casein is one of the best known high molecular weight (24 kDa) protein substrates for transglutaminases. Please note, the IC50 value of Ref. 3 (A8) published in U.S. Pat. No. 9,434,763 B2 cannot be compared to the present data, relying on a fluorogenic isopeptidase assay.
To this extent, inhibition data were determined using the classical fluorescent transamidation assay (dansylcadaverine incorporation into methylated casein, DCC-assay) as described in Büchold et al. [Büchold, C.; Hils, M.; Gerlach, U.; Weber, J.; Pelzer, C.; Heil, A.; Aeschlimann, D.; Pasternack, R. Features of ZED1227: The First-In-Class Tissue Transglutaminase Inhibitor Undergoing Clinical Evaluation for the Treatment of Celiac Disease. Cells 2022, 11, 1667. https://doi.org/10.3390/cells11101667]. Casein is one of the best known high molecular weight (24 kDa) protein substrates for transglutaminases. Inhibition data of the inventive compounds was compared with inhibition of compounds disclosed in U.S. Pat. No. 9,434,763 B2, particularly, compound A8, which is denoted herein as Reference 3. It is noteworthy that the IC50 values of compounds A8 published in U.S. Pat. No. 9,434,763 B2 and E16 from U.S. Pat. No. 11,072,634 B2 cannot be compared to the present data, relying on a fluorogenic isopeptidase assay.
For the determination of potency of inhibitors against tissue transglutaminase, the incorporation of dansylcadaverine into dimethylcasein (Zedira product T036, Lorand et al., Anal Biochem, 1971, 44:221-31) was measured using recombinant human transglutaminase 2 (Zedira Product T022).
The tissue transglutaminase is diluted in buffer (50 mM Tris-HCl, 7.5 mM CaCl2), 150 mM NaCl, pH=7.4). The final concentration of TG2 in the assay is 10 nM.
A 10 mM inhibitor stock solution is prepared in DMSO, and from this a serial 1:2-fold dilution series is prepared also in DMSO. Each of the initial dilutions is subsequently diluted 1:50-fold with buffer (50 mM Tris-HCl, 7.5 mM CaCl2), 150 mM NaCl, pH=7.4) to yield the final working dilutions containing 2% (v/v) DMSO.
15 μl of inhibitor working dilution are added per well of a 96 well microtiter plate. As control, 15 μl of a 2% (v/v) DMSO solution prepared using the buffer mentioned above are added per well.
Immediately before starting the assay, 600 μl transglutaminase working solution are added to 11.4 ml assay buffer (50 mM Tris-HCl, 10 mM CaCl2), 10 mM glutathione, 2.5% glycerol, 16.7 µM dansylcadaverine, 4 uM N,N-dimethylcasein, 200 mM NaCl, pH=8.0). 285 μl of this reaction mix are added per well containing the inhibitor.
Increase in fluorescence is measured using λex=330 nm and λem=500 nm at 37° C. for 30 min. A slope of the increase in fluorescence between 20 and 30 min is calculated for determination of the IC50 value (inhibitor concentration at which 50% of the initial activity is blocked).
Analysis of enzymatic activity is performed by calculation of the slope of an increase in fluorescence intensity. IC50 values are calculated by plotting the enzymatic activity (as percentage from control containing 2% DMSO instead of inhibitor) against the inhibitor concentration. IC50 is defined as the inhibitor concentration blocking 50% of initial enzyme activity.

A short description of data set [2]: logD by shake flask method (octanol / PBS pH 7.4, HPLC). The class given is physicochemical. Conditions: octanol / PBS pH 7.4, shake flask. The method, then: In order to classify the inventive compounds according to their lipophilicity, LogD values (distribution coefficient) were determined by means of the well-established shake flask method, measuring the partition of a compound between an octanol and phosphate-buffered saline (PBS, pH 7.4) by HPLC.
The LogD is pH dependent and is a “predictor” for in-vivo properties. LogD combines lipophilicity (intrinsic structural property of the molecule, logP) and ionizability (pKa). Compounds with a moderate lipophilicity (LogD values from 0 to 3) are usually advantaged for oral absorption, being in balance between solubility and permeability. However, sophisticated formulation of a compound might improve oral bioavailability for highly lipophilic compounds.

Data set [3] is described as follows: Caco-2 permeability assay (CacoReady kit). Conditions: human, Caco-2, Caco-2 barrier, CacoReady kit; above 1×10^−6 cm/s classified as permeable. It counts as in vitro ADME. As for the experimental part:
Permeability coefficients (Papp values) were obtained from Caco-2 barrier studies predicting oral/intestinal bioavailability of the tested compounds. The assays were performed by using CacoReady™ ready-to-use kits from ReadyCell according to the manufacturers protocol.

SMILES strings stand for the structures.

For orientation: IC50 means the midpoint of a concentration-inhibition curve. What is called logD is lipophilicity at a set pH, counting ionised and neutral species. The low end stands for a more hydrophilic compound, the high end for a more lipophilic compound. One may read the Papp as the rate of passage across a membrane or cell layer, normalised by area and donor concentration. Higher therefore signals ready permeation. In the case of `CNC(=O)C(=O)CC[C@H](NC(=O)c1ccc(Cl)o1)C(=O)Nc1cccn(CC(=O)NC2C3CC4CC(C3)CC2C4)c1=O` (stereo partly drawn) [II-26, (S)-2-(5-chlorofuran-2-carboxamido)-N1-(1-(2-(2-adamantylamino)-2-oxoethyl)-2-oxo-1,2-dihydropyridin-3-yl)-N6-methyl-5-oxohexanediamide], the IC50 in data set [1] is 40 to 400 nM. This compound also had a logD in data set [2] of 1 to 3. The Papp in data set [3] lay in the range of 1 to 10 ×10⁻⁶ cm/s.
For `CNC(=O)C(=O)CC[C@H](NC(=O)c1csc(Cl)c1)C(=O)Nc1cccn(CC(=O)NC2C3CC4CC(C3)CC2C4)c1=O` (stereo partly drawn) [II-27, (S)-2-(5-chlorothiophene-3-carboxamido)-N1-(1-(2-(2-adamantylamino)-2-oxoethyl)-2-oxo-1,2-dihydropyridin-3-yl)-N6-methyl-5-oxohexanediamide] the same measures were 40 to 400 nM, 1 to 3 and 1 to 10 ×10⁻⁶ cm/s.
As to `CNC(=O)C(=O)CC[C@H](NC(=O)c1cc(Br)sc1Br)C(=O)Nc1cccn(CC(=O)NC2C3CC4CC(C3)CC2C4)c1=O` (stereo partly drawn) [II-29, (S)-2-(2,5-dibromothiophene-3-carboxamido)-N1-(1-(2-(2-adamantylamino)-2-oxoethyl)-2-oxo-1,2-dihydropyridin-3-yl)-N6-methyl-5-oxohexanediamide], in data set [1], the IC50 is below 40 nM. The same compound had a logD in data set [2] of 3 to 5. Also, the Papp in data set [3] was in the range of 1 to 10 ×10⁻⁶ cm/s.
Turning to `CNC(=O)C(=O)CC[C@H](NC(=O)c1csc(Br)c1)C(=O)Nc1cccn(CC(=O)NC2C3CC4CC(C3)CC2C4)c1=O` (stereo partly drawn) [II-30, (S)-2-(5-bromothiophene-3-carboxamido)-N1-(1-(2-(2-adamantylamino)-2-oxoethyl)-2-oxo-1,2-dihydropyridin-3-yl)-N6-methyl-5-oxohexanediamide], the IC50 in data set [1] was below 40 nM. Moreover, the logD in data set [2] was in the range of 3 to 5. The same compound yielded a Papp in data set [3] of 1 to 10 ×10⁻⁶ cm/s.
For `CNC(=O)C(=O)CC[C@H](NC(=O)c1nc(Cl)sc1C)C(=O)Nc1cccn(CC(=O)NC2C3CC4CC(C3)CC2C4)c1=O` (stereo partly drawn) [II-31, (S)-2-(2-chloro-5-methylthiazole-4-carboxamido)-N1-(1-(2-(2-adamantylamino)-2-oxoethyl)-2-oxo-1,2-dihydropyridin-3-yl)-N6-methyl-5-oxohexanediamide] the same measures were 40 to 400 nM, 1 to 3 and 1 to 10 ×10⁻⁶ cm/s.
Taken in the same sequence, the figures for `CNC(=O)C(=O)CC[C@H](NC(=O)c1nc(Cl)sc1Cl)C(=O)Nc1cccn(CC(=O)NC2C3CC4CC(C3)CC2C4)c1=O` (stereo partly drawn) [II-32, (S)-2-(2,5-dichlorothiazole-4-carboxamido)-N1-(1-(2-(2-adamantylamino)-2-oxoethyl)-2-oxo-1,2-dihydropyridin-3-yl)-N6-methyl-5-oxohexanediamide] were 40 to 400 nM, 1 to 3 and 1 to 10 ×10⁻⁶ cm/s.
Taken in the same sequence, the figures for `CNC(=O)C(=O)CC[C@H](NC(=O)c1nc(Br)sc1Br)C(=O)Nc1cccn(CC(=O)NC2C3CC4CC(C3)CC2C4)c1=O` (stereo partly drawn) [II-33, (S)-2-(2,5-dibromothiazole-4-carboxamido)-N1-(1-(2-(2-adamantylamino)-2-oxoethyl)-2-oxo-1,2-dihydropyridin-3-yl)-N6-methyl-5-oxohexanediamide] were 40 to 400 nM, 1 to 3 and above 10 ×10⁻⁶ cm/s.
As to `CNC(=O)C(=O)CC[C@H](NC(=O)c1nc(Br)sc1C)C(=O)Nc1cccn(CC(=O)NC2C3CC4CC(C3)CC2C4)c1=O` (stereo partly drawn) [II-34, (S)-2-(2-bromo-5-methylthiazole-4-carboxamido)-N1-(1-(2-(2-adamantylamino)-2-oxoethyl)-2-oxo-1,2-dihydropyridin-3-yl)-N6-methyl-5-oxohexanediamide], the IC50 in data set [1] fell in the range of 40 to 400 nM. Besides, in data set [2], the logD was in the range of 1 to 3. This compound also returned a Papp in data set [3] above 10 ×10⁻⁶ cm/s.
Taken in the same sequence, the figures for `CNC(=O)C(=O)CC[C@H](NC(=O)c1csc(Br)n1)C(=O)Nc1cccn(CC(=O)NC2C3CC4CC(C3)CC2C4)c1=O` (stereo partly drawn) [II-35, (S)-2-(2-bromothiazole-4-carboxamido)-N1-(1-(2-(2-adamantylamino)-2-oxoethyl)-2-oxo-1,2-dihydropyridin-3-yl)-N6-methyl-5-oxohexanediamide] were 40 to 400 nM, 1 to 3 and 1 to 10 ×10⁻⁶ cm/s.
For `CNC(=O)C(=O)CC[C@H](NC(=O)c1csc(Cl)n1)C(=O)Nc1cccn(CC(=O)NC2C3CC4CC(C3)CC2C4)c1=O` (stereo partly drawn) [II-36, (S)-2-(2-chlorothiazole-4-carboxamido)-N1-(1-(2-(2-adamantylamino)-2-oxoethyl)-2-oxo-1,2-dihydropyridin-3-yl)-N6-methyl-5-oxohexanediamide], the IC50 in data set [1] fell in the range of 40 to 400 nM. This compound displayed a logD in data set [2] of 1 to 3. Also, the Papp in data set [3] is 1 to 10 ×10⁻⁶ cm/s.
Taken in the same sequence, the figures for `CNC(=O)C(=O)CC[C@H](NC(=O)c1cc(C)oc1C)C(=O)Nc1cccn(CC(=O)NC2C3CC4CC(C3)CC2C4)c1=O` (stereo partly drawn) [II-37, (S)-2-(2,5-dimethylfuran-3-carboxamido)-N1-(1-(2-(2-adamantylamino)-2-oxoethyl)-2-oxo-1,2-dihydropyridin-3-yl)-N6-methyl-5-oxohexanediamide] were 40 to 400 nM, 1 to 3 and 1 to 10 ×10⁻⁶ cm/s.
Taken in the same sequence, the figures for `CNC(=O)C(=O)CC[C@H](NC(=O)c1nc(C)c(C)s1)C(=O)Nc1cccn(CC(=O)NC2C3CC4CC(C3)CC2C4)c1=O` (stereo partly drawn) [II-38, (S)-2-(4,5-dimethylthiazole-2-carboxamido)-N1-(1-(2-(2-adamantylamino)-2-oxoethyl)-2-oxo-1,2-dihydropyridin-3-yl)-N6-methyl-5-oxohexanediamide] were 400 to 2500 nM, 3 to 5 and 1 to 10 ×10⁻⁶ cm/s.
